According to patent US5736629A, “Herbicide resistant rice” (priority 1997, dated 1998):

Key:
[1] = biological target: T1, AHAS (acetohydroxyacid synthase) in enzyme extracts from normal rice variety Mercury (Oryza sativa subsp. japonica, UniProt Q6K2E8); assay: AHAS enzyme assay, extract from rice variety Mercury; assay type: biochemical
T1 construct: 40.0 grams (fresh weight) of tissue were extracted in the same manner for each of the three varieties; from tissue; host or cells: stem tissue of greenhouse-grown rice seedlings, variety Mercury (leaf blades removed)
T1 sequence (Q6K2E8 40-644 limits assumed): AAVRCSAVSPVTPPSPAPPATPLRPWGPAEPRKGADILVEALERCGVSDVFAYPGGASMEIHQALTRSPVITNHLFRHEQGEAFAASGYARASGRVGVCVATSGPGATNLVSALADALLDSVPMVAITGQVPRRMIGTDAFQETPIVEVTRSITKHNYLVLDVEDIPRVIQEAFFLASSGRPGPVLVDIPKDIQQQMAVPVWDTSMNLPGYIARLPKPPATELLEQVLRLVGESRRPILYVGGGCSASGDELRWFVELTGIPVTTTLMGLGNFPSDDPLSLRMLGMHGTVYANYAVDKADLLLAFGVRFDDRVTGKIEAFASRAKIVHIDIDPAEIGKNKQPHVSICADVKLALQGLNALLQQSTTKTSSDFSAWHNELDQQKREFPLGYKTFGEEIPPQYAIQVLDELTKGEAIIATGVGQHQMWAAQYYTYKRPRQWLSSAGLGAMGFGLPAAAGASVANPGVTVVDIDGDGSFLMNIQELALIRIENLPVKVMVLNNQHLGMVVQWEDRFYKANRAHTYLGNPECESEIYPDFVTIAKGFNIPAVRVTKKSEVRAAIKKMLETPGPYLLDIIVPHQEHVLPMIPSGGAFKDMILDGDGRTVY
Excerpt: The herbicide resistance of the AHAS enzyme from the ATCC 75295 rice line was compared to the resistance of the AHAS enzymes from the rice varieties "Lemont" and "Mercury," the varieties that were the ancestors of this rice line. The procedures used to assay the activity of acetohydroxyacid synthase were substantially as described in B. K. Singh et al., "Assay of Acetohydroxyacid Synthase," Analytical Biochemistry, vol. 171, pp. 173-179 (1988), except as noted. In the first paragraph of Singh's "Materials and Methods," instead of corn suspension culture cells, stem tissues from greenhouse-grown rice seedlings at the four-leaf stage of development were used. Leaf blades were removed, and 40.0 grams (fresh weight) of tissue were extracted in the same manner for each of the three varieties. […] Pursuit herbicide (imazethapyr) was included in the "standard reaction mixture" for the AHAS assay in the concentrations indicated in Table 1 below. Checks were made of direct acetoin formation during the enzyme assay. Each treatment was conducted with two replicates.

[2] = test system: rice line ATCC 75295 (first resistance mechanism only); assay: Greenhouse test of plant vigor after imazethapyr, ATCC 75295; assay type: in vivo; settings: for Rating of rice plant vigor: 36 days after treatment at 2-3 leaf stage, 10-point scale, 0 = dead plant, 10 = no visible injury
Excerpt: In the greenhouse tests, pots were planted with F3 seed from crosses between the two lines. Each pot was planted with seed from a single panicle from a single plant; each pot was therefore the equivalent of a headrow. A total of 140 pots were planted in this manner, along with 40 pots of various non-resistant genotypes for comparison. Imazethapyr was applied at the 2-3 leaf stage two weeks after planting, at rates equivalent to 0.063 lb. active ingredient (a.i.) per acre, 0.125 lb. a.i./acre, and 0.313 lb. a.i./acre.
Table 2 summarizes measurements taken 36 days after spraying rice at the 2-3 leaf stage of development.

[3] = test system: other anther-culture progeny rows of Mercury//Lemont/Mercury rice; assay: Open-field spray screen of anther-culture progeny rows, all other rows; assay type: in vivo
Procedure: This resistant line was derived by conducting anther culture on the F2 progeny of a backcross made by pollinating a rice plant of the variety "Lemont" with pollen from the rice variety "Mercury," followed by a backcross using pollen from this hybrid to pollinate a plant of the variety "Mercury." The resulting backcross is described as Mercury//Lemont/Mercury. Anthers collected from a plant resulting from this backcross were plated on callus induction medium, and the resulting calli were transferred to plant regeneration media. The procedures used were generally as described in Croughan and Chu, "Rice (Oryza saliva L.): Establishment of Callus Cultures and the Regeneration of Plants" in Bajaj (Ed.), "Biotechnology in Agriculture and Forestry," pp. 19-37 (1991). Several regenerated plants were produced and grown to maturity in a greenhouse to produce seed. Progeny seed were planted in an open field, and herbicide applications were made using a garden tractor-mounted spray rig.
A set of 4,193 progeny rows derived from this anther culture procedure were planted in an open field, and were sprayed with 4 ounces per acre of Pursuit (1.00 ounce active ingredient imazethapyr per acre) at the four-leaf stage of seedling development. […]

[4] = test system: progeny of the mutant rice plant (ATCC 97523); assay: Subsequent greenhouse and field testing of progeny of the surviving plant; assay type: in vivo; settings: herbicides applied either pre-emergence or post-emergence
Excerpt: (Imazamox is sold by American Cyanamid under the trade name Raptor, and has as active ingredient (+)-5-methoxymethyl-2-(4-isopropyl-4-methyl-5-oxo-2-imidazolin-2-yl) nicotinic acid. Imazameth is sold by American Cyanamid under the trade name Cadre, and has as active ingredient (±)-2-[4,5-dihydro-4-methyl-4-(1-methyl-ethyl)-5-oxo-1H-imidazol-2-yl]- 5-methyl-3-pyridinecarboxylicacid;alternatechemicalname (±)-2-(4-isopropyl-4-methyl-5-oxo-2-imidazolin-2-yl)-5-methylnicotinic acid). Imazapyr is sold by American Cyanamid under the trade name Arsenal, and has active ingredient 2-[4,5-dihydro-4-methyl-4-(1-methylethyl)-5-oxo-1H-imidazol-2-yl]-3-pyridinecarboxylic acid) This line is resistant to herbicides applied either pre-emergence or post-emergence.

CCc1cnc(C2=NC(C)(C(C)C)C(=O)N2)c(C(=O)O)c1 (racemic) [imazethapyr, (±)-2-[4,5-dihydro-4-methyl-4-(1-methylethyl)-5-oxo-1H-imidazol-2-yl]-5-ethyl-3-pyridinecarboxylic acid]
activity at 0.1 µM ([1]; imazethapyr 0.1 μM): 100% | activity at 1 µM ([1]; imazethapyr 1 μM): 89% | activity at 10 µM ([1]; imazethapyr 10 μM): 64% | activity at 100 µM ([1]; imazethapyr 100 μM): 62% | Rating of rice plant vigor ([2]; 0.063 lb. a.i./acre): 0.61 ± 0.03 | Rating of rice plant vigor ([2]; 0.125 lb. a.i./acre): 0.81 ± 0.45 | Rating of rice plant vigor ([2]; 0.313 lb. a.i./acre): about 0.6 | Rating of rice plant vigor ([2]; 0.313 lb. a.i./acre, listed as Imazethapyr): 0.55 ± 0.55 | Time to visible resumption of growth after herbicide application ([2]; ATCC 75295 plants, greenhouse test): about three weeks | Visible injury (in words) ([2]; plants with only the first resistance mechanism, 0.313 lb a.i./acre, 36 days after treatment): substantial injury | Symptoms (in words) ([3]; 4 ounces per acre Pursuit (1.00 ounce a.i. per acre), four-leaf stage, open field): injured or killed | Symptoms (in words) ([3]; second spray 8 ounces/acre Pursuit (2.00 ounce a.i. per acre), four weeks after the initial treatment, rows that survived the initial spraying): lethal | Resistance of the rice line (in words) [4]: resistance
